According to patent publication US12564596B2, “Agents and methods for modulating pathogen activity” (Griffith University, priority 2018, dated 2026):
Like-named read-outs stand apart in the source and are kept apart here.

How the values were obtained:
N. gonorrhoeae strains = assay: Well diffusion assay in the absence of human cells; parameters: species or system Neisseria gonorrhoeae; conditions: GC-agar, overnight 37° C.
Procedure: (§1) FIG. 22 is a graphical representation showing the effect of carbamazepine on N. gonorrhoeae in the absence of human cells. Well diffusion assays were performed in which N. gonorrhoeae strains were spread uniformly across the surface of GC-agar plates at a culture density of 10^7 bacterial per mL. Wells were then punctured within the agar surface to which carbamazepine (Cz; […], as noted), 0.2 μg/mL ceftriaxone (Cfx), 10 μg/mL ciprofloxacin (Cip), or 1% DMSO (vehicle control) were added. […] For agar plates in which a ZOI was not visible, data were recorded as the diameter of the well (6 mm), as indicated. Assays were performed in triplicate on 3 separate occasions. Data are presented as the mean and variance of the average values obtained for each assay; statistical significance was determined using a Student's t-test. […] This is consistent with a CR3-dependent, host-mediated mechanism of killing.
as §1, with “23” for “22”, “methyldopa” for “carbamazepine”, “methyldopa (Md;” for “carbamazepine (Cz;”
FIG. 24 is a graphical representation showing the effect of flufenamic acid on N. gonorrhoeae in the absence of human cells. Well diffusion assays were performed in which N. gonorrhoeae strains were spread uniformly across the surface of GC-agar plates at a culture density of 10^7 bacterial per mL. Wells were then punctured within the agar surface to which flufenamic acid ([…], as noted), 0.2 μg/mL ceftriaxone, 10 μg/mL ciprofloxacin, or 1% DMSO (vehicle control) were added. […] For agar plates in which a ZOI was not visible, data were recorded as the diameter of the well (6 mm), as indicated. Assays were performed in triplicate on 3 separate occasions. Data are presented as the mean and variance of the average values obtained for each assay; statistical significance was determined using a Student's t-test.

[1] = target: T1, human recombinant I-domain (rI-domain) of CD11b (Homo sapiens, UniProt P11215); assay: Surface plasmon resonance binding to human rI-domain (KD)
T1 construct: made in house
T1 sequence (P11215 150-328 limits assumed): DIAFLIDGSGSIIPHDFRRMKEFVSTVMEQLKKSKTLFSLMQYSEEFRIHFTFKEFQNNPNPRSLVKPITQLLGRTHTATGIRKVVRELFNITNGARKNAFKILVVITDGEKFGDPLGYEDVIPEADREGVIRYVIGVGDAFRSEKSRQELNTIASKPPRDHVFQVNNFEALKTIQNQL

[2] = target: T2, N. gonorrhoeae MS11 pilin interaction with human rI-domain (Homo sapiens, UniProt P11215); assay: SPR 1:1 competition assay, MS11 pilin binding to rI-domain; conditions: for inhibition at 0.1 µM: 1:1 competition, 100 nM; for Block MS11 pilin in SPR: direct competition SPR; for Drug RU: drug alone flowed at 100 nM over immobilized rI-domain; for Pilin + Drug RU: drug and pilin flowed at 100 nM, 1:1
T2 construct: was performed with human rI-domain immobilized on a CM5 sensor chip surface; made in house
T2 sequence (P11215 150-328): as the sequence (P11215 150-328 limits assumed) above
Procedure: To determine if drugs with high affinity interactions with the human rI-domain could inhibit the interaction with MS11 pilin or HIV, competition assay between primary T-cell derived WITO HIV and N. gonorrhoeae MS11 pilin and the drugs were performed as described Mubaiwa et al (2017, Sci Rep. 7(1):5693). Competition analysis SPR of N. gonorrhoeae MS11 pilin and human rI-domain interaction was performed with human rI-domain immobilized on a CM5 sensor chip surface (low immobilization—˜3500 RU compared to ˜14000 RU for initial screening and KD calculations). N. gonorrhoeae MS11 purified pilin, drug or drug and pilin were flowed at 100 nM over the I-domain and the response units of the interactions were recorded.

[3] = test system: primary T-cell derived WITO HIV interaction with human rI-domain; assay: SPR 1:1 competition assay, WITO HIV binding to rI-domain; conditions: for % inhibition: 1:1 competition, 1 μM; for Block HIV in SPR: direct competition SPR; for Drug RU: drug alone flowed at 1 μM over immobilized WITO HIV; for Pilin + Drug RU: drug and human rI-domain flowed at 1 μM, 1:1
Procedure: For competition analysis SPR of the HIV interaction with human rI-domain, primary T-cell derived WITO HIV was immobilized on a Cl sensor chip surface. Human rI-domain, drug or drug and human rI-domain were flowed at 1 μM over the immobilized HIV and the response units of the interactions were recorded. Any drug that could not compete with the virus or pilin binding to the rI-domain was also discarded. Remaining drugs were evaluated for known safety in humans and known therapeutic concentrations to determine if the drug would be tested, and at what concentrations, in in vitro cell models. All SPR sensorgrams and results plots were analyzed with Biacore S200 Evaluation Software (GE Healthcare Life Sciences).

[4] = test system: N. gonorrhoeae strain MS11gfp adherence to CHO-CR3 cells; assay: Fluorometric adherence assay, gonococci to CHO cells; assay type: cell-based, Neisseria gonorrhoeae
Procedure: The ability of carbamazepine to block adherence of N. gonorrhoeae strain MS11gfp to CHO-neo or CHO-CR3 cells was evaluated using a fluorometric adherence assay. Assays were performed essentially as described by Jen et al (2013, PLoS Pathog. 9(5):e1003377). In this regard, CHO-neo or CHO-CR3 cells were seeded to a 96-well plate and allowed to grow to confluence. MS11gfp gonococci were then used to challenge (1 h) CHO cells simultaneously with, or without, various concentrations of carbamazepine (as noted). Fluorescence (485/528 nm) intensity, corresponding to bacterial adherence, was recorded using a Synergy HT Multi-mode Microplate Reader (BioTek Instruments, Winooski, VT USA). The assay was performed in triplicate on 3 separate occasions. A Kruskal-Wallis k-sample analysis of variance was used to determine the statistical significance of the calculated mean of bacterial adherence.
(§2) The ability of the compounds, or negative controls to block adherence of N. gonorrhoeae strain MS11gfp to PEX cells, CHO-CR3, or CHO-neo cells was evaluated using a fluorometric microtiter plate assay. Assays were performed essentially as described by Jen et al. (2013, Plos Pathog 9(5): e1003377). In this regard, GFP-expressing gonococci were used to challenge (1 h) PEX or CHO cells immediately following compound addition. Fluorescence (485/528 nm) intensity, corresponding to bacterial adherence, was recorded using a Synergy HT Multi-mode Microplate Reader (BioTek Instruments, Winooski, VT USA). Blank wells, devoid of PEX or CHO cells, also were inoculated with bacteria and served as a control for non-specific binding. The assay was performed in triplicate on 3 separate occasions. A Student's t-test was used to determine the statistical significance of the calculated mean of bacterial adherence.

[5] = test system: N. gonorrhoeae adherence to primary human cervical epithelial (PEX) cells; assay: Fluorometric adherence assay, gonococci to PEX cells; assay type: cell-based, Neisseria gonorrhoeae; conditions: for gonococcal adherence to PEX cells with increasing concentrations: 1 h post-challenge; for inhibition at 0.01 µM: Neisseria gonorrhoeae, 1 h, read-out: inhibition of adherence to PEX cells; for gonococcal adherence to PEX cells compared with uninfected cells: MS11gfp
Description: Briefly, six N. gonorrhoeae strains were used in the experiments. These included the laboratory strain, MS11; the low-passage isolates, 1291, UT38097, LT38885, PID-26, and SK92-679; all of which were transformed with the green fluorescent protein (GFP) expression plasmid, pCmGFP (GenBank accession number FJ172221) Srikhanta et al (2009, PLoS Pathog. 5(4):e1000400) and, thus, expressed GFP Edwards et al (2000, Infect Immun 68(9):5354-63). […] The ability of carbamazepine to block the adherence of N. gonorrhoeae to human, primary cervical epithelial (PEX) cells was evaluated using a fluorometric adherence assay. Assays were performed essentially as described by Jen et al (2013, supra). In this regard, PEX cells were seeded to a 96-well plate and allowed to grow to confluence. Gonococci were then used to challenge (1 h) PEX cells simultaneously with, or without, various concentrations of carbamazepine ([…], 10 nM, 1 μM, or 100 μM, as noted) or 1% DMSO (vehicle control). Uninfected PEX cells treated with 1% DMSO served as a control for background fluorescence. Fluorescence (485/528 nm) intensity, corresponding to bacterial adherence, was recorded using a Synergy HT Multi-mode Microplate Reader (BioTek Instruments, Winooski, VT USA). The assay was performed in triplicate on 3 separate occasions. A Student's t-test was used to determine the statistical significance of the calculated mean of bacterial adherence.
as §2

[6] = 0.2 μg/mL ceftriaxone, 10 μg/mL ciprofloxacin

SMILES	effect on N. gonorrhoeae in the absence of human cells (zone of inhibition) (N. gonorrhoeae strains; [6])	Kd [1] [nM]	inhibition at 0.1 µM [2] [%]	Block MS11 pilin in SPR [2]	Drug RU [2] [RU]	Pilin + Drug RU [2] [RU]	% inhibition [3] [%]	Block HIV in SPR [3]	Drug RU [3] [RU]	Pilin + Drug RU [3] [RU]	blocking of the adherence of gonococci to CR3 ([4]; 100 μM, CHO-CR3 cells, 1 h)	gonococcal adherence to CHO-CR3, but not CHO-neo, cells with increasing concentrations ([4]; 1 h post-challenge)	gonococcal adherence to PEX cells with increasing concentrations [5]	inhibition at 0.01 µM [5] [%]	effect on N. gonorrhoeae in the absence of human cells (zone of inhibition) (N. gonorrhoeae strains; 100 μM to 100 μM [sic])	effect on N. gonorrhoeae in the absence of human cells (zone of inhibition) (N. gonorrhoeae strains; concentrations of ≤1 μM)	Kd ([1]; SPR, single cycle kinetics, 25° C., PBS, read-out: KD) [nM]	gonococcal adherence to CHO-CR3 cells compared with CHO-neo cells ([4]; 100 μM, 1 h post-challenge)	gonococcal adherence to PEX cells compared with uninfected cells ([5]; 1 μM)	gonococcal adherence to PEX cells compared with uninfected cells ([5]; 100 μM)
O=C(O)c1cn(C2CC2)c2cc(N3CCNCC3)c(F)cc2c1=O [ciprofloxacin]	direct effect in killing gonococci																			
CO/N=C(\C(=O)N[C@@H]1C(=O)N2C(C(=O)O)=C(CSc3nc(=O)c(=O)[nH]n3C)CS[C@H]12)c1csc(N)n1 [ceftriaxone]	direct effect in killing gonococci																			
O=C(O)c1ccccc1Nc1cccc(C(F)(F)F)c1 [flufenamic acid, 2{[3-(trifluoromethyl)phenyl]amino}benzoic acid]		6.66	79.8	Yes	4.627	10.872	85.47	Yes	0.473	8.857	Greater than 86%	dose-dependent decrease	dose-dependent decrease	~70	no effect	no effect				
C[C@](N)(Cc1ccc(O)c(O)c1)C(=O)O [methyldopa, (S)-2-amino-3-(3,4-dihydroxyphenyl)-2-methyl-propanoic acid]			88.9	Yes	4.578	8.003	93.94	Yes	0.296	3.692		dose-dependent decrease	dose-dependent decrease	~85	no effect		1.01	not significantly different than that recorded for CHO-neo cells	not significantly (p≥0.234) different than those obtained for vehicle (DMSO)-treated, uninfected PEX cells	not significantly (p≥0.234) different than that recorded for uninfected cells
